The numbers were not newly measured in article PMC10905719, “Accelerating Antimicrobial Peptide Discovery for WHO Priority Pathogens through Predictive and Interpretable Machine Learning Models” (ACS Omega, 2024), which cites them from elsewhere.

One data set deals with P. aeruginosa ATCC 10148. The conditions noted are these: NewAMP_P, ref SI 3. From the text:
page 6: NH2 8 LKKWLKKWTPKASQFFGLM- NewAMP_E AH-5 NH E. coli ATCC 25922 4.67 2 3 […] P. aeruginosa ATCC NewAMP_P RaCa-2 KC 10148 128 3 P. aeruginosa ATCC NewAMP_P RaCa-4 FLTFPGMTFGKLLGK 10148 No inhibition 3 […] P. aeruginosa ATCC NewAMP_P RaCa-6 GKQ 10148 No inhibition 3 […] P. aeruginosa ATCC NewAMP_P RaCa-7 SVGN 10148 No inhibition 3 P. aeruginosa ATCC NewAMP_P RaCa-8 FPAIICKVSKNC 10148 No inhibition 3 P. aeruginosa ATCC NewAMP_P RaCa-9 FYFPVSRKFGGK 10148 No inhibition 3 […] P. aeruginosa ATCC NewAMP_P RaCa-10 LEII 1 ...

The test system of a further data set is S. aureus ATCC 6538P. The following applies: NewAMP_S, ref SI 3. The source says:
page 7: 29213 8 S. aureus ATCC NewAMP_S HJH-6 KKLLKKLLRLLKVLLR 29213 0.75 6 GWGAKRWGKRGWKWKRH NewAMP_S GW18 W-COONH S. aureus ATCC 6538 3.12 2 3 […] S. aureus ATCC NewAMP_S RaCa-2 KC 6538P 2-4 3 S. aureus ATCC NewAMP_S RaCa-4 FLTFPGMTFGKLLGK 6538P No inhibition 3 […] S. aureus ATCC NewAMP_S RaCa-6 GKQ 6538P No inhibition 3 […] S. aureus ATCC NewAMP_S RaCa-7 SVGN 6538P No inhibition 3 S. aureus ATCC NewAMP_S RaCa-8 FPAIICKVSKNC 6538P No inhibition 3 S. aureus ATCC NewAMP_S RaCa-9 FYFPVSRKFGGK 6538P No inhibition 3 […] S ...

In the next data set the test system is Erythrocyte. From the text: page 8: 2 VGALAGFLYWHFLRKGTKM NewAMP_S Hm-AMP10 VGK S. aureus ST 88 248.00 NewAMP_S hHK-18 TGKASQFFGLM-NH S. aureus ATCC 151.63 2 25923 NewAMP_S AH-18 LKKWTGKASQFFGLM-NH S. aureus ATCC 222.71 2 25923 NewAMP_S AH-28 LKKWTLKASQFFGLM-NH S. aureus ATCC 229.89 2 25923 NewAMP_S AH-38 LKKWLKKWTGKASQFFGLM- S. aureus ATCC 9.18 NH2 25923 NewAMP_S AH-48 LKKWLKKWTLKASQFFGLM- S. aureus ATCC 4.70 NH2 25923 Sub-set Name Sequence Erythrocyte MHC(µg/mL) (% hemolysis) NewAMP_HE HJH-18 KLLKHKLLVTLA Erythrocyte 382.72a NewAMP_HE HJH-28 KLLKHKLLVTLR Erythrocyte 382.72a NewAMP_HE HJH-38 KLLKRKLLVTLR Erythrocyte 382 ...

Another data set concerns E. coli ATCC 25922. The conditions noted are these: NewAMP_E, ref SI 3. From the text:
page 5: Table S3 NewAMP database1-9 Sub-set Name Sequence Bacterial Strain MIC (µg/mL) NewAMP_E HJH-58 KKLLRLLKVLLR E. coli ATCC 25922 1.5 3 […] NewAMP_E RaCa-2 KC E. coli ATCC 25922 4-16 3 […] NewAMP_E RaCa-6 GKQ E. coli ATCC 25922 No inhibition NewAMP_E RaCa-83 FPAIICKVSKNC E. coli ATCC 25922 No inhibition 3 […] NewAMP_E RaCa-10 LEII E. coli ATCC 25922 No inhibition 5 […] NewAMP_E Hydr_2 KLL-NH E. coli ATCC 25922 512 2 5 […] NewAMP_E Hydr_3 KAG-NH E. coli ATCC 25922 512 2 NewAMP_E Hydr_45 FLPLIGRVFSGIL ... || page 6: NH2 8 LKKWLKKWTPKASQFFGLM- NewAMP_E AH-5 NH E. coli ATCC 25922 4.67 2 3 […] P. aeruginosa ATCC NewAMP_P RaCa-2 KC 10148 128 3 P. aeruginosa ATCC NewAMP_P RaCa-4 FLTFPGMTFGKLLGK 10148 No inhibition 3 […] P. aeruginosa ATCC NewAMP_P RaCa-6 GKQ 10148 No inhibition 3 […] P. aeruginosa ATCC NewAMP_P RaCa-7 SVGN 10148 No inhibition 3 P. aeruginosa ATCC NewAMP_P RaCa-8 FPAIICKVSKNC 10148 No inhibition 3 P. aeruginosa ATCC NewAMP_P RaCa-9 FYFPVSRKFGGK 10148 No inhibition 3 […] P. aeruginosa ATCC NewAMP_P RaCa-10 LEII 1 ...

Take “SNRDFFKVNIFRLCG [RaCa-11, newly published AMP of the NewAMP test set]”: the MIC result in the data set with P. aeruginosa ATCC 10148 and with S. aureus ATCC 6538P was “No inhibition” throughout.
As for “KKLLKKLLRLLKVLLR [HJH-6, newly published AMP of the NewAMP test set]”, the “% hemolysis at MHC” value in the data set on Erythrocyte is 90%.
“FLTFPGMTFGKLLGK [RaCa-4, newly published AMP of the NewAMP test set]”: the MIC entry in the data set with P. aeruginosa ATCC 10148 and with S. aureus ATCC 6538P was “No inhibition” in each case.
Turning to “FYFPVSRKFGGK [RaCa-9, newly published AMP of the NewAMP test set]”, the MIC entry in the data set with P. aeruginosa ATCC 10148 and with S. aureus ATCC 6538P was “No inhibition” in each case.
As to “FPAIICKVSKNC [RaCa-8, newly published AMP of the NewAMP test set]”, the MIC entry in the data set on P. aeruginosa ATCC 10148, in the data set with S. aureus ATCC 6538P and in the data set with E. coli ATCC 25922 was “No inhibition” in each case.
With “FILYGLIRFGRLLRK [Hm-AMP4, newly published AMP of the NewAMP test set]”, in the data set on Erythrocyte, the “% hemolysis at MHC” value is 77%.
